Data as given in patent publication EP0199524B1, “Platinum tramine antitumor agents” (ENGELHARD CORPORATION, priority 1985, dated 1986).
“And” between values parts separate entries of the source, which are not always exact repeats. Equal entries are not always repeated.

Tested on: S180 ascites
Assay: Screening for anti-tumor activity against S180 ascites (S180a) in mice
Type: in vivo, female CFW Swiss mice
Conditions: medium H2O; for 30-Day Survivors: S180a in mice, survivors/mice in set; for %ILS: injected day 1, S180a in mice, upper limit 100%
Method: The compounds were evaluated for anti-tumor activity against S180 ascites in female CFW Swiss mice by the following procedure: CFW mice, averaging 20g, are immediately inspected and placed in newly prepared cages. On day zero the mice are inoculated with 0.2 ml. of a freshly prepared saline suspension (0.15 M NaCl) containing 1 x 10⁷ tumor cells/ml, or a total of 2 x 10⁶ cells. This inoculum is freshly prepared using "transfer" mice which have been injected with tumor cells the previous week. This inoculum is the end-product of a series of steps which involves (1) the removal of the cells from the peritoneal cavity of the sacrificed transfer mouse, (2) alternate centrifugation-washing (2-3 times with cold saline) to remove occasional blood and other undesirable components, and finally (3) dilution (1:3) of the packed cell volume with saline (the final centrifugation being carried out at 1,000 rpm for 2 min.). A cell count is made on a 2,000-fold dilution of this 1:3 suspension by means of a Coulter Counter. A final dilution to 1 x 10⁷ cells/ml. is made based on the averaged count. On day 1, solutions of the test compounds are prepared and the mice injected, with each mouse of a set of six being injected with the same test compound at the same dose level.
ILS values above 50% represent significant activity; those above 75% represent excellent activity.

Row | SMILES | 30-Day Survivors (Dose 5 mg/kg) | 30-Day Survivors (Dose 10 mg/kg) | 30-Day Survivors (Dose 20 mg/kg) | 30-Day Survivors (Dose 40 mg/kg) | %ILS (Dose 40 mg/kg, 40 mg/kg) | 30-Day Survivors (Dose 80 mg/kg) | 30-Day Survivors (Dose 160 mg/kg) | 30-Day Survivors (Dose 320 mg/kg) | %ILS (Dose 320 mg/kg) | %ILS (Dose 10 mg/kg) | %ILS (Dose 20 mg/kg) | %ILS (Dose 160 mg/kg) | 30-Day Survivors (Dose 640 mg/kg) | %ILS (Dose 640 mg/kg) | %ILS (Dose 40 mg/kg) | %ILS (Dose 80 mg/kg) | other results
1 | N.N.[Cl-].[Cl][Pt+].c1ccncc1 [Example 1, Cis-Chlorodiamminepyridineplatinum(II) Chloride] | 0/6 | 0/6 | 1/6 and 0/6 | 4/6 and 6/6 | 91% and 100% | 0/6 and 4/6 | 0/6 | 0/7 | -94% | – | – | – | – | – | – | – | %ILS (Dose 5 mg/kg, 5 mg/kg): 19%; %ILS (Dose 20 mg/kg, 20 mg/kg): 73% and 70%; %ILS (Dose 40 mg/kg, listed as Cis-[Pt(NH₃)₂(py)Cl]Cl, 40 mg/kg): 100%
2 | N.N.Oc1ccccn1.[Cl-].[Cl][Pt+] [Example 2, Cis-Chlorodiammine-2-hydroxypyridineplatinum(II) Chloride] | 0/6 | 0/6 | 0/6 | 4/6 and 2/6 | 95% and 78% | 4/6 and 2/6 | 3/6 | 0/6 | -74% | 15% | 28% | 64% | 0/6 | -77% | – | – | %ILS (Dose 5 mg/kg): 15%; %ILS (Dose 80 mg/kg, 80 mg/kg): 91% and 80%; 30-Day Survivors (Dose 1280 mg/kg): 0/6; %ILS (Dose 1280 mg/kg): -84%
3 | Cc1cccc(O)[n+]1[Pt-2]([NH3+])([NH3+])[Cl].[Cl-] (stereo not drawn) [Example 3, Cis-Chlorodiammine-6-methyl-2-hydroxypyridineplatinum(II) Chloride] | – | 0/6 | 0/6 | 0/6 | – | 0/6 | 5/6 | 3/6 | 93% | -9% | -6% | 93% | – | – | 12% | 15% | –
4 | [Cl-].[NH3+][Pt-2]([NH3+])([Cl])[n+]1cccc(O)c1 (stereo not drawn) [Example 4, Cis-chlorodiammine-3-hydroxypyridineplatinum(II) Chloride] | – | 0/6 | 0/6 | 0/6 | – | 1/6 | 1/6 | 0/6 | -75% | 5% | 10% | -8% | – | – | 54% | 69% | –
5 | Cc1cc[n+]([Pt-2]([NH3+])([NH3+])[Cl])cc1.[Cl-] (stereo not drawn) [Example 5, Cis-chlorodiammine-4-methylpyridineplatinum(II)chloride] | – | 0/6 | 1/6 | 2/6 | – | 1/6 | 0/6 | 0/6 | -91% | 5% | 27% | -77% | – | – | 83% | 66% | –
6 | N.N.Nc1cc[nH]c(=O)n1.[Cl-].[Cl][Pt+] [Example 6, Cis-chlorodiamminecytosineplatinum(II) chloride] | – | – | 0/6 | 1/6 | – | 4/6 | 3/6 | 2/6 | -16% | – | 23% | 68% | 0/6 | -74% | 58% | 92% | –
7 | Cc1ccc(O)c[n+]1[Pt-2]([NH3+])([NH3+])[Cl].[Cl-] (stereo not drawn) [Example 7, Cis-chlorodiammine-6-methyl-3-hydroxypyridineplatinum(II) chloride] | – | – | 0/6 | 2/6 | – | 4/6 | 3/6 | 0/6 | -49% | – | 30% | 82% | 0/6 | -75% | 70% | 93% | –
8 | [Cl-].[NH3+][Pt-2]([NH3+])([Cl])[n+]1ccc(Cl)cc1 (stereo not drawn) [Example 8, Cis-chlorodiammine-4-chloropyridineplatinum(II) chloride] | – | 0/6 | 2/6 | 4/6 | – | 4/6 | 0/6 | 0/6 | -94% | 22% | 68% | -77% | – | – | 77% | 36% | –
9 | N.N.[Cl-].[Cl][Pt+].c1ccncc1 [Example 18, Trans-Chlorodiamminepyridineplatinum(II) Chloride] | 0/6 | 0/6 | 0/6 | 0/6 | 15% | 0/6 | 0/6 | – | – | – | – | – | – | – | – | – | %ILS (Dose 5 mg/kg, 5 mg/kg): 2%; %ILS (Dose 10 mg/kg, 10 mg/kg): 7%; %ILS (Dose 20 mg/kg, 20 mg/kg): 6%; %ILS (Dose 80 mg/kg, 80 mg/kg): 26%; %ILS (Dose 160 mg/kg, 160 mg/kg): -70%
10 | [Cl-].[Cl][Pt-2]1([n+]2ccccc2)[NH2+]C2CCCCC2[NH2+]1 (stereo not drawn) [Example 19, Chloro-1,2-diaminocyclohexanepyridineplatinum(II) chloride] | – | 0/6 | 0/6 | 0/6 | – | 0/6 | 0/6 | 0/6 | -94% | 6% | 8% | 25% | – | – | 6% | 15% | –
